Source: paper PMC10769797 (The Oncologist, 2023)

Test system: patients with advanced solid tumors
Experiment: Phase I dose-escalation safety: adverse events
Assay type: in vivo, human

## Cc1cc(NC2CCN(C(=O)OC3CCN(C(=O)/C=C/CN(C)C)C3)CC2)n2ncc(C(C)C)c2n1 (centres unmarked) [LY3405105]
QD (N = 43), Any grade
  Patients with ≥1 SAE related to study treatment: 7 (16) n (%)
  Patients with ≥1 TRAE: 29 (67) n (%)
  SAE related to study treatment: Abdominal pain: 1 (2) n (%)
  SAE related to study treatment: Acute kidney injury: 1 (2) n (%)
  SAE related to study treatment: Alanine aminotransferase increase: 1 (2) n (%)
  SAE related to study treatment: Diarrhea: 2 (5) n (%)
  SAE related to study treatment: Dyspnea: 1 (2) n (%)
  SAE related to study treatment: Hypotension: 1 (2) n (%)
  SAE related to study treatment: Mucosal inflammation: 1 (2) n (%)
  SAE related to study treatment: Nausea: 1 (2) n (%)
  SAE related to study treatment: Ophthalmic herpes zoster: 1 (2) n (%)
  SAE related to study treatment: Platelet count decrease: 1 (2) n (%)
  TRAE: Abdominal pain: 6 (14) n (%)
  TRAE: Anemia: 5 (12) n (%)
  TRAE: Asthenia: 2 (5) n (%)
  TRAE: Diarrhea: 18 (42) n (%)
  TRAE: Fatigue: 8 (19) n (%)
  TRAE: Nausea: 9 (21) n (%)
  TRAE: Platelet count decrease: 6 (14) n (%)
  TRAE: Vomiting: 8 (19) n (%)
QD (N = 43), ≥Grade 3
  Patients with ≥1 SAE related to study treatment: 6 (14) n (%)
  Patients with ≥1 TRAE: 10 (23) n (%)
  SAE related to study treatment: Abdominal pain: 0 n (%)
  SAE related to study treatment: Acute kidney injury: 1 (2) n (%)
  SAE related to study treatment: Alanine aminotransferase increase: 1 (2) n (%)
  SAE related to study treatment: Diarrhea: 2 (5) n (%)
  SAE related to study treatment: Dyspnea: 1 (2) n (%)
  SAE related to study treatment: Hypotension: 0 n (%)
  SAE related to study treatment: Mucosal inflammation: 1 (2) n (%)
  SAE related to study treatment: Nausea: 1 (2) n (%)
  SAE related to study treatment: Ophthalmic herpes zoster: 1 (2) n (%)
  SAE related to study treatment: Platelet count decrease: 1 (2) n (%)
  TRAE: Abdominal pain: 0 n (%)
  TRAE: Anemia: 2 (5) n (%)
  TRAE: Asthenia: 0 n (%)
  TRAE: Diarrhea: 2 (5) n (%)
  TRAE: Fatigue: 1 (2) n (%)
  TRAE: Nausea: 1 (2) n (%)
  TRAE: Platelet count decrease: 3 (7) n (%)
  TRAE: Vomiting: 0 n (%)
QD, oral monotherapy, patients
  Maximum tolerated dose (MTD): 20 mg
  Recommended phase II dose (RP2D): 20 mg
TIW (N = 11), Any grade
  Patients with ≥1 SAE related to study treatment: 0 n (%)
  Patients with ≥1 TRAE: 6 (55) n (%)
  SAE related to study treatment: Abdominal pain: 0 n (%)
  SAE related to study treatment: Acute kidney injury: 0 n (%)
  SAE related to study treatment: Alanine aminotransferase increase: 0 n (%)
  SAE related to study treatment: Diarrhea: 0 n (%)
  SAE related to study treatment: Dyspnea: 0 n (%)
  SAE related to study treatment: Hypotension: 0 n (%)
  SAE related to study treatment: Mucosal inflammation: 0 n (%)
  SAE related to study treatment: Nausea: 0 n (%)
  SAE related to study treatment: Ophthalmic herpes zoster: 0 n (%)
  SAE related to study treatment: Platelet count decrease: 0 n (%)
  TRAE: Abdominal pain: 0 n (%)
  TRAE: Anemia: 1 (9) n (%)
  TRAE: Asthenia: 4 (36) n (%)
  TRAE: Diarrhea: 0 n (%)
  TRAE: Fatigue: 0 n (%)
  TRAE: Nausea: 1 (9) n (%)
  TRAE: Platelet count decrease: 0 n (%)
  TRAE: Vomiting: 0 n (%)
TIW (N = 11), ≥Grade 3
  Patients with ≥1 SAE related to study treatment: 0 n (%)
  Patients with ≥1 TRAE: 0 n (%)
  SAE related to study treatment: Abdominal pain: 0 n (%)
  SAE related to study treatment: Acute kidney injury: 0 n (%)
  SAE related to study treatment: Alanine aminotransferase increase: 0 n (%)
  SAE related to study treatment: Diarrhea: 0 n (%)
